In patent US20030143199A1, “Use of STAT-6 inhibitors as therapeutic agents” (priority 2001, published 2003):
“Also recorded” adds a separate entry of the source.

Key:
[1] = tested on: Human Hodgkin's lymphoma cells L1236; experiment: Effect of IBT and interferon on Hodgkin's lymphoma cells (CellTiter 96 MTS viability); format: cell-based; conditions: 3, 5 or 7 days; IBT at doses up to 10 μM; FIG. 12
Protocol: Human Hodgkin's lymphoma cells L1236 were incubated for 3, 5 or 7 days in complete RPMI1640 and 10% FBS. The cells were plated at 3×10^5 cells/mL.
The effect was more pronounced after 7 days of incubation.
The results are illustrated in FIG. 12. The y-axis represent the normalized viability when compared to control cells incubated with 0.1% DMSO with no interferon or IBT added, adjusted at 100%. The cell viability was determined using CellTiter 96 Aqueous One Solution Cell Proliferation Assay (Promega). (CellTiter 96 uses a novel tetrazolium compound (MTS) and an electron coupling reagent, phenazine ethosulfate.)

[2] = tested on: malignant lymphocytes from two patients with chronic lymphocytic leukemia [CLL]; experiment: Effect of the p53 inhibitory compounds on B-CLL viability (PI exclusion by FACS, MTT), 3 days culture; format: cell-based; conditions: FIG. 1
Excerpt: The malignant lymphocytes from two patients with chronic lymphocytic leukemia [CLL] were isolated by ficoll-hypaque sedimentation and suspended at a density of 1 million cells per milliliter in RPMI 1640 medium supplemented with 10% fetal bovine serum. Two hundred microliter aliquots of cells were dispersed in the wells of culture plates containing the indicated final concentrations of either PFT-α (“PFT-open”) or IBT (PFT-closed). After 3 days culture, viable cells were enumerated by fluorescence-activated cell sorting [FACS] after staining with propidium iodide [PI]. Viable cells excluded the dye [open circles]. In addition, cell metabolism was assessed by the ability of the cells to […] the tetrazolium dye MTT [closed squares].

[3] = tested on: Chronic lymphocytic leukemia [CLL] cells; experiment: Protection against spontaneous apoptosis and fludarabine-induced apoptosis (PI negative / DiOC6 high cells by FACS); format: cell-based; conditions: one micromolar, 3 days culture, FIG. 2
Protocol: Chronic lymphocytic leukemia [CLL] cells were cultured for 3 days as described in Example 2. Some of the cultures were supplemented with one micromolar of PFT-open or PFT-closed, as indicated. In the experiment shown in the bottom panel of FIG. 2, some of the cultures also contained the cytotoxic adenine nucleoside analog fludarabine [abbreviated F-AraA]. Fludarabine is the first line treatment for CLL, and the toxicity of the drug is dependent upon the p53 pathway. To assess healthy, viable cells, staining was done with both PI, as indicated in Example 2, and with the mitochondrial dye DiOC6. Cells that were both PI negative and DIOC6 high were enumerated by FACS.

[4] = tested on: BEAS-2B human airway epithelial cells; experiment: Viability of treated cells at end of incubation in the 12/15-lipoxygenase promoter/luciferase STAT-6 reporter assay; format: cell-based; conditions: 10 μM for 1 hour, then IL-4 10 ng/ml, 16 hours
Protocol: The BEAS-2B human airway epithelial cells were transiently transfected with the human 12/15-lipoxygenase promoter/luciferase reporter gene. Cells were then incubated with the IBT analogs (FIG. 5) at 10 μM for 1 hour, followed by IL-4 (10 ng/ml). After 16 hours, luciferase was measured using a chemiluminometer. The STAT-6 induction was normalized using the B-gal results as “background.” The viability of the treated cells was visually verified at the end of the incubation, and found to be >95%. Results shown in FIG. 3 are the mean of duplicate measurements.
Human airway epithelial cells, BEAS-2B, were transiently transfected with the human 12/15-lipoxygenase promoter/luciferase reporter plasmid with and without a STAT6 expressing plasmid. The cells were incubated with 10 μM of STAT-6 (Control Sample 1); 10 μM STAT-6 (Sample 2); a mixture of STAT-6 and compound 8 (Sample 3); and compound 8 alone (Sample 4); for 1 hour. This was followed treatment with 10 ng/mL of IL-4 (except control). After 16 hours, luciferase was measured using a chemiluminometer. The STAT-6 induction was normalized using the β-gal results as “background”. The viability of the treated cells was visually verified at the end of the incubation, and found to be>95%. The results are illustrated in FIG. 7.

[5] = Cyclization of PFT-α to IBT in DMSO/water dilutions, reversed phase HPLC over time; format: physicochemical; conditions: for % cyclized to IBT: DMSO stock diluted with water, 25° C., reversed phase HPLC
Protocol: The preparation of PFT-α was accomplished as shown in Scheme 1 by reacting 4-methyl-2-bromoacetophenone with 2-amino-4,5,6,7-tetrahydrobenzothiazole. Upon recrystallization of the PFT-α from isopropyl alcohol, it was noticed that PFT-α readily ring-closed completely to the imidazo[2, 1-b]benzothiazole (IBT). Therefore, a subsequent investigation was undertaken to study the propensity of PFT-α to ring-close in protic solvents. […] Thus, PFT-α was dissolved in DMSO and water dilutions were made from this stock.

| SMILES | Anti-proliferative / growth-inhibitory effect on L1236 cells (normalized viability) [1] | CLL survival / toxicity (viable cells by PI exclusion and MTT) [2] | Effect on untreated CLL cells (spontaneous apoptosis) [3] | Protective effect on CLL cells treated with F-AraA (fludarabine) ([3]; with fludarabine, compared with PFT-α) | Viability of the treated cells, visually verified at the end of the incubation [4] | % cyclized to IBT ([5]; 0 h) | % cyclized to IBT ([5]; 12 h) | % cyclized to IBT ([5]; 24 h) | % cyclized to IBT ([5]; 48 h) | Stability / ring closure in protic solvents and aqueous solution (in words) ([5]; protic solvents, room temperature, aqueous solution) |
| --- | --- | --- | --- | --- | --- | --- | --- | --- | --- | --- |
| Cc1ccc(-c2cn3c4c(sc3n2)CCCC4)cc1 [IBT] | only a small anti-proliferative effect | non-toxic at concentrations up to 100 micromolar | nearly equivalent effects | less protective effects | > 95% | – | – | – | – | – |
| Cc1ccc(C(=O)Cn2c3c(sc2=N)CCCC3)cc1 [PFT-α] | – | dose-dependently reduced CLL survival | nearly equivalent effects | – | – | 5% | 47% | 69% | 92% | unstable in aqueous solution under in vivo conditions; also recorded: begins cyclizing at room temperature immediately upon dissolution in protic solvents |
